Laboratory results: patent US6849657B2, “2-pyrrolidone derivatives as prostanoid agonists” (Syntex (U.S.A.) LLC, priority 2001, dated 2005)
Read-outs that look alike come from different tables or passages of the source.

Columns and labels:
rEP3 receptor = molecular target: T1, rEP3 receptor (UniProt P34980); assay: Competitive binding assay of [3H]PGE2 to rEP3 receptor; settings: [3H]-PGE2 competitive binding, membranes of stably transfected cells, pH 7.4, 60 minutes at 30° C.; read-out: EP3, Ki
T1 sequence (P34980 1-365): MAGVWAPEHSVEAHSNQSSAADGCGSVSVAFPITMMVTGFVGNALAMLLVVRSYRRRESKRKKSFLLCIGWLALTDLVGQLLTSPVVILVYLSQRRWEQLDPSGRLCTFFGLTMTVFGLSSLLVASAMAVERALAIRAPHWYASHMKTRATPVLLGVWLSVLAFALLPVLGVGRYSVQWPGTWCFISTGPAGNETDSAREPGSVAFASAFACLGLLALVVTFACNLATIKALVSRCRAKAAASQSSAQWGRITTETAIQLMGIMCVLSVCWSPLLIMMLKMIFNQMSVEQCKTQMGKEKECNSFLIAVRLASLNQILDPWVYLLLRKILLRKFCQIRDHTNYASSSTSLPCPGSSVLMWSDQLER
Protocol: (§1) Competitive Binding Assay of [^3H]PGE2 to rEP1, rEP2, rEP3 and rEP4 Receptor
(§2) Stably transfected cells expressing EP3 were grown in F-12 media (GIBCO) supplemented with 10% heat inactivated certified Fetal Bovine Serum (GIBCO) and pelleted. Prostanoid receptor EP2 or EP4 cDNA corresponding to the full-length coding sequence was subcloned into the appropriate sites of the mammalian expresson vector pcDNA 3.1(+)/Zeo (Invitrogen). Transfection-scale quantities of the vector were prepared using the Qiagen Endo-Free Plasmid Maxi Kit and transfected into COS-7 cells using FuGene 6 (Roche Molecular) according to the manufacturer's instructions (Roche). COS-7 cells were grown in DMEM (GIBCO) supplemented with 10% heat inactivated certified Fetal Bovine Serum (GIBCO) and Gentamicin (GIBCO), and were harvested 72 hours after transfection. Cells were pelleted by centrifugation, washed with PBS (GIBCO), repelleted, then flash-frozen in dry-ice/Ethanol or used directly for membrane preparation.
(§3) All procedures for membrane preparation were performed at 4° C. Prostanoid receptor-transfected COS-7 cells or stably transfected CHO cells were homogenized in assay buffers (see recipe, below) using a Polytron homogenizer (Brinkman) and centrifuged at 48,000×g for 30 minutes. Pellets were resuspended in assay buffer and resuspended by sonication using a Branson sonifier. Protein concentration was determined using the BioRad DC Protein Assay following the manufacturer's directions and stored at −80° C.
Methods for competitive affinity binding assays of EP2, EP3 and EP4 were derived from those described in M. Abramovitz et al, “The utilization of recombinant prostanoid receptors to determine the affinities and selectivities of prostaglandins and related analogs” Biochimica et Biophysica Acta 1483 (2000) 285-293. Binding assays were performed in a final incubation volume of 0.2 mL in the following assay buffers: 20 mM HEPES, 1 mM EDTA, and 10 mM MgCl2 (pH 7.4) (EP3) or 10 mM MES, 10 mM MnCl2, and 1 mM EDTA_(pH to 6.0 with NaOH) (EP2 and EP4) and radioligand {2.25 nM (EP3) or 2.5 nM (EP2) [^3H]-PGE2 (200 Ci/mmol, NEN)}. […] Non-specific binding was determined in the presence of 10 µM of non-radioactive PGE2 (Cayman Chemical). […] The filters were washed with 3-4 mL of wash buffer (20 mM HEPES pH 7.4 for EP3, 10 mM MES, 0.01% BSA, pH 6.0 for EP2 and EP4), dried for at least 1 hour at room temperature, and the residual radioactivity bound to the individual filters determined by scintillation counting with addition of 37.5 uL of Microscint 20 (Packard) using a Packard TopCount Microplate Scintillation Counter. Statistics of binding were determined using Prism v 3.0 software (GraphPad).

rEP2 receptor = rEP2 receptor (UniProt Q62928); assay: Competitive binding assay of [3H]PGE2 to rEP2 receptor; settings: [3H]-PGE2 competitive binding, membranes of transfected COS-7 cells, pH 6.0, 45 minutes at 23° C.; read-out: EP2, Ki
Protocol: as §1, §2, §3
Methods for competitive affinity binding assays of EP2, EP3 and EP4 were derived from those described in M. Abramovitz et al, “The utilization of recombinant prostanoid receptors to determine the affinities and selectivities of prostaglandins and related analogs” Biochimica et Biophysica Acta 1483 (2000) 285-293. Binding assays were performed in a final incubation volume of 0.2 mL in the following assay buffers: 20 mM HEPES, 1 mM EDTA, and 10 mM MgCl2 (pH 7.4) (EP3) or 10 mM MES, 10 mM MnCl2, and 1 mM EDTA_(pH to 6.0 with NaOH) (EP2 and EP4) and radioligand {2.25 nM (EP3) or 2.5 nM (EP2) [^3H]-PGE2 (200 Ci/mmol, NEN)}. Reactions were initiated by addition of membrane protein (approximately 50 ug/reaction for EP3, 100 ug for EP2 and EP4). Dimethylsulfoxide (Sigma) concentration was kept constant at 1% (v/v) in all incubations, and compounds were assayed at final concentrations of 100 uM-0.3 nM. Non-specific binding was determined in the presence of 10 µM of non-radioactive PGE2 (Cayman Chemical). Incubations were conducted for 60 minutes at 30° C. (EP3) or 45 minutes at 23° C. (EP2 and EP4). Incubations were terminated by rapid filtration through a 96-well Unifilter GF/B (Packard) (prewetted in 10 mM MES, 0.01% BSA, pH 6.0 for EP2) at 4° C. using a Filtermate 196 96-well semi-automated cell harvester (Packard). The filters were washed with 3-4 mL of wash buffer (20 mM HEPES pH 7.4 for EP3, 10 mM MES, 0.01% BSA, pH 6.0 for EP2 and EP4), dried for at least 1 hour at room temperature, and the residual radioactivity bound to the individual filters determined by scintillation counting with addition of 37.5 uL of Microscint 20 (Packard) using a Packard TopCount Microplate Scintillation Counter. Statistics of binding were determined using Prism v 3.0 software (GraphPad).

rEP4 receptor = rEP4 receptor (UniProt P43114); assay: Competitive binding assay of [3H]PGE2 to rEP4 receptor
Protocol: as §1, §2, §3
Reactions were initiated by addition of membrane protein (approximately 50 ug/reaction for EP3, 100 ug for EP2 and EP4). Dimethylsulfoxide (Sigma) concentration was kept constant at 1% (v/v) in all incubations, and compounds were assayed at final concentrations of 100 uM-0.3 nM. Non-specific binding was determined in the presence of 10 µM of non-radioactive PGE2 (Cayman Chemical). Incubations were conducted for 60 minutes at 30° C. (EP3) or 45 minutes at 23° C. (EP2 and EP4). […] The filters were washed with 3-4 mL of wash buffer (20 mM HEPES pH 7.4 for EP3, 10 mM MES, 0.01% BSA, pH 6.0 for EP2 and EP4), dried for at least 1 hour at room temperature, and the residual radioactivity bound to the individual filters determined by scintillation counting with addition of 37.5 uL of Microscint 20 (Packard) using a Packard TopCount Microplate Scintillation Counter. Statistics of binding were determined using Prism v 3.0 software (GraphPad).

[1] = [3H]-PGE2 competitive binding, membranes of transfected COS-7 cells, pH 6.0, 45 minutes at 23° C.; read-out: EP4, Ki

Ki (rEP3 receptor)	Ki (rEP2 receptor)	Ki (rEP4 receptor; [1])	SMILES	Ki (rEP4 receptor; read-out: EP4, Ki; [3H]-PGE2 competitive binding, membranes of transfected COS-7 cells, pH 6.0, 45 minutes at 23° C.)
49000 nM	7800 nM	8 nM	O=C(O)CCCSCCN1C(=O)CC[C@@H]1CC[C@@H](O)c1cccc(Oc2cccc(F)c2)c1 [Compound 15, 4-[2-((S)-2-{(R)-3-[3-(3-Fluoro-phenoxy)-phenyl]-3-hydroxy-propyl}-5-oxo-pyrrolidin-1-yl)-ethylsulfanyl]-butyric Acid]	
> 10000 nM	> 10000 nM	60 nM	CCCCC[C@H](O)/C=C/C1CCC(=O)N1OCCCCCC(=O)O (stereo partly drawn) [Compound 28, 6-[2-((S)-(E)-3-Hydroxy-oct-1-enyl)-5-oxo-pyrrolidin-1-yloxy]-hexanoic acid]	
2600 nM	1600 nM	5 nM	CCCCC[C@H](O)/C=C/[C@H]1CCC(=O)N1CCSCCCC(=O)O [Compound 1, 4-[(2-{(2R)-2-[(1E,3S)-3-hydroxyoct-1-enyl]-5-oxopyrrolidin-1-yl}ethyl)thio]butanoic acid]	
	> 10000 nM		CCCCCC(O)/C=C/[C@H]1CCC(=O)N1C/C=C\COCC(=O)O (stereo partly drawn) [Compound 8, {(Z)-4-[(R)-2-((E)-3-hydroxy-oct-1-enyl)-5-oxo-pyrrolidin-1-yl]-but-2-enyloxy}-acetic acid]	
	18000 nM	90 nM	CCCCCC(C)(O)/C=C/[C@H]1CCC(=O)N1CCSCCCC(=O)O (stereo partly drawn) [Compound 14, 4-{2-[(R)-2-((E)-3-hydroxy-3-methyl-oct-1-enyl)-5-oxo-pyrrolidin-1-yl]-ethylsulfanyl}-butyric acid]	

SMILES	Ki (rEP3 receptor)	Ki (rEP2 receptor)	Ki (rEP4 receptor; [1])	Ki (rEP4 receptor; read-out: EP4, Ki; [3H]-PGE2 competitive binding, membranes of transfected COS-7 cells, pH 6.0, 45 minutes at 23° C.)
O=C(O)COCCCCN1C(=O)CC[C@@H]1/C=C/[C@@H](O)Cc1cccc(C(F)(F)F)c1 [Compound 10, (4-{(R)-2-[(S)-(E)-3-hydroxy-4-(3-trifluoromethyl-phenyl)-but-1-enyl]-5-oxo-pyrrolidin-1-yl}-butoxy)-acetic acid]	> 10000 nM	66000 nM		7 nM
